Test results from patent US20240216369A1, “THE USE OF A SPLICING MODULATOR FOR A TREATMENT SLOWING PROGRESSION OF HUNTINGTON'S DISEASE” (Novartis AG, priority 2019, published 2024).

Columns and labels:
mutant HTT protein = assay: Human PK/PD model scaled from BacHD mouse, simulations in adult patients; settings: Scaled PD parameters (cortex)
Description: For the development of a PK/PD model in adults, the adult ACAT/PBPK model (Example 1c.1) was used to predict the concentration-time course of branaplam in plasma after oral branaplam administration. The PD parameters of the population PK/PD model in mouse were scaled for brain cortex and brain striatum from BacHD mouse to human according to following assumptions: • Mutant HTT baseline level in brain (R0) was kept equal to 1. • Drug's potency (IC50) was assumed to be the same in human as in BacHD mouse. The value was not corrected by the plasma protein binding since values in mouse and human were 0.741 and 0.8 in mouse and human, respectively. • Degradation rate or fractional turnover parameter of the mutant HTT protein synthesis (kout) was scaled from BacHD mouse to human considering an allometric scaling method based on the assumption that endogenous turnover of proteins, peptides and hormones can be scaled across different species and are related to energy turnover or metabolic rates (Gabrielsson J, Hjorth S, Quantitative Pharmacology: An Introduction to Integrative Pharmacokinetic-Pharmacodynamic Analysis. Swedish Pharmaceutical Press; 1 edition (May 7, 2012)). […]

[1] = Pediatric ACAT/PBPK model (Type 1 SMA patients); design: species or system human; settings: Type 1 SMA patients 33-39 months; optimized on observed data
Description: The pharmacokinetic (PK) model in adult subjects was developed using an Advanced Compartmental And Transit (ACAT)/Physiologically Based Pharmacokinetic (PBPK) model in GastroPlus™ software, Version 9.6 (SimulationPlus, Lancaster, CA, USA).
• Principle set-up of a pediatric ACAT/PBPK model in GastroPlus™ software including physico-chemical parameters, physiological parameters, and formulation factors. The ACAT model was linked to a full PBPK model in which tissue-to-plasma concentration ratios were estimated via in silico method provided by GastroPlus™ software. • Estimation of the clearance (CL) using plasma concentrations of branaplam from an open-label multi-part first-in-human proof of concept study of oral branaplam, Part 1 only. The aim of Part 1 of this study was to determine the safety and tolerability of ascending weekly doses and to estimate the maximum tolerated dose (MTD) of oral/enteral branaplam (formulation described in Example 3) in infants with Type 1 SMA. All patients had exactly 2 copies of the SMN2 gene. Patients were dosed once weekly with branaplam. The branaplam doses were escalated in subsequent cohorts until MTD was determined or when PK results confirmed that the MTD could not be reached due to a potential pharmacokinetic exposure plateau at higher doses. The starting dose referring to the free base was 6 mg/m^2 (equal to 0.3125 mg/kg). Subsequent doses were 12 mg/m^2, 24 mg/m^2, 48 mg/m^2 and 60 mg/m^2 (0.625 mg/kg, 1.25 mg/kg, 2.5 mg/kg and 3.125 mg/kg, respectively). 14 patients were enrolled in Part 1; 13 patients were exposed to branaplam. The duration of exposure ranged from 4-33 months, 7 patients remain in the study. Six of the 7 patients are receiving 60 mg/m^2, 1 patient is receiving 48 mg/m^2.
Observed plasma concentrations of branaplam in 33-39 months old Type 1 SMA patients after nominal branaplam doses of 60 mg/m^2 (3.125 mg/kg, first-in-human proof of concept study with branaplam as described above) were used to build the pediatric ACAT/PBPK by means of GastroPlus™ software. […]

CC1(C)CC(Oc2ccc(-c3ccc(-c4cn[nH]c4)cc3O)nn2)CC(C)(C)N1 [Compound 18, 5-(1H-pyrazol-4-yl)-2-(6-((2,2,6,6-tetramethylpiperidin-4-yl)oxy)pyridazin-3-yl)phenol]
Imax (mutant HTT protein; first block): 1 | Imax (mutant HTT protein; second block): 1 | Vc [1]: 3.62 (Optimized value using GastroPlus ™ based on the 1/h | k12 [1]: 1.41 (Optimized value using GastroPlus ™ based on the 1/h | k21 [1]: 0.144 (Optimized value using GastroPlus ™ based on the 1/h
